Results taken from patent publication US20080027042A1, “Novel Aminopyridine Derivatives Having Aurora a Selective Inhibitory Action” (priority 2004, published 2008).
Structures can show the parent of a compound that is named as a salt.

Experiments:
Aurora B = molecular target: T1, Aurora B (Homo sapiens, UniProt Q96GD4); assay: Aurora B inhibitory action (33P-ATP kinase assay, Kemptide substrate); type: biochemical; details: 100 μM ATP, 30° C., 20 minutes
T1 construct: histidine tag (N); made in house; host or cells: Escherichia coli BL21-CodonPlus(DE3)-RIL
T1 sequence (Q96GD4 whole entry): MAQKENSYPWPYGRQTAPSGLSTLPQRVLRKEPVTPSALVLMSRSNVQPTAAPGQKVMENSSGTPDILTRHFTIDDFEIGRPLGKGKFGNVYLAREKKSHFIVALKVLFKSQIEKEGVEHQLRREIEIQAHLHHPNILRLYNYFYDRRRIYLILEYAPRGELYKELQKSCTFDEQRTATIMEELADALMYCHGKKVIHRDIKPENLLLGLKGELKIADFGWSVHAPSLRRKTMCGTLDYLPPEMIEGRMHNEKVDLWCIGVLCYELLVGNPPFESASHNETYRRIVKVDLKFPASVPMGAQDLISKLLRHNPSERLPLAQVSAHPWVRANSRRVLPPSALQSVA
From the text: Aurora B Inhibitory Action
(1) Purification of Aurora B
(§1) cDNA of Aurora B having histidine tag fused at the amino terminal was integrated into an expression vector, which was then highly expressed in Escherichia coli BL21-CodonPlus(DE3)-RIL cells. The Escherichia coli cells were recovered and solubilized, and then the histidine-tagged […] protein was adsorbed onto a nickel chelate column and eluted from the column with imidazole. The active fraction was desalted with a desalting column to give a pure enzyme.
(2) Measurement of Activity of Aurora B
For measurement of the activity of Aurora B, the substrate used was Kemptide (Lys-Arg-Arg-Ala-Ser-Lys-Gly) (SEQ.ED.NO.: 1), a synthetic peptide purchased from Sigma-Aldrich, Inc. [Certificate of analysis (Upstate, Inc.)].
Reaction was conducted by a partial modification of the method of activity measurement for Aurora A. The amount of the reaction liquid was 21.1 μL, and the composition of the reaction buffer (R2 buffer) was 50 mM Tris-hydrochloride buffer (pH 7.4)/15 mM magnesium acetate/0.2 mM ethylenediamine-N,N,N′,N′-tetraacetate (EDTA). To this, purified Aurora B, 100 μM of a substrate peptide, 100 μM of unlabeled adenosine triphosphate (ATP) and 1 μCi of [γ-^33P] labeled ATP (2,500 Ci/mmole or more) were added, and the mixture was reacted at 30° C. for 20 minutes. Then, 10 μL of 350 mM phosphate buffer was added to the reaction system to stop the reaction. The substrate peptide was adsorbed on a P81 paper filter 96-well plate and then washed with 130 mM phosphate buffer for several times. The radiation activity of the peptide was measured with a liquid scintillation counter. The [γ-^33P] labeled ATP was purchased from Amersham Biosciences Co., Ltd.
(§2) The compound to be tested was added to the reaction system such that a dilution series of the compound in dimethylsulfoxide was first prepared, and 1.1 μL of this solution was added. A control was provided by adding 1.1 μL of DMSO to the reaction system.

Aurora A = molecular target: T2, Aurora A (Homo sapiens, UniProt O14965); assay: Aurora A inhibitory action (33P-ATP kinase assay, Kemptide substrate); type: biochemical; details: 20 μM ATP, 30° C., 20 minutes
T2 construct: histidine tag (N); made in house; host or cells: Escherichia coli BL21-CodonPlus(DE3)-RIL
T2 sequence (O14965 1-403): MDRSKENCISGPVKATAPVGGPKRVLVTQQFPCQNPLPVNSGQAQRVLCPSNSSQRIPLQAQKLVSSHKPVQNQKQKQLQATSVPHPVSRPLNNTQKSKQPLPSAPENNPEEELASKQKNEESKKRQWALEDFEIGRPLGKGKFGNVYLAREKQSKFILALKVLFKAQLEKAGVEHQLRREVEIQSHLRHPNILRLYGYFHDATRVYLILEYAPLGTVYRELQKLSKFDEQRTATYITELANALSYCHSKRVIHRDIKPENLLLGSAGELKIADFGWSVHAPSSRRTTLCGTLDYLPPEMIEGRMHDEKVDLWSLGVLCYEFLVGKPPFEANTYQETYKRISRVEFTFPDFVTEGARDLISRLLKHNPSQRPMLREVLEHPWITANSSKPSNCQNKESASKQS
From the text: Aurora A Inhibitory Action
(1) Purification of Aurora A
as §1, with “A” for “B”, “BL2 1-CodonPlus(DE3)-RIL” for “BL21-CodonPlus(DE3)-RIL”
(2) Measurement of Activity of Aurora A
For measurement of the activity of Aurora A, the substrate used was Kemptide (Lys-Arg-Arg-Ala-Ser-Lys-Gly) (SEQ.ID.NO.: 1), a synthetic peptide purchased from Sigma-Aldrich, Inc. [Certificate of analysis (Upstate, Inc.)].
Reaction was conducted by a partial modification of a method by Upstate, Inc. [Kinase Profiler™ Assay Protocols]. The amount of the reaction liquid was 21.1 μL, and the composition of the reaction buffer (R2 buffer) was 50 mM Tris-hydrochloride buffer (pH 7.4)/15 mM magnesium acetate/0.2 mM ethylenediamine-N,N,N′,N′-tetraacetate (EDTA). To this, purified Aurora A, 100 μM of a substrate peptide, 20 μM of unlabeled adenosine triphosphate (ATP) and 0.5 μCi of [γ-^33P] labeled ATP (2,500 Ci/mmole or more) were added, and the mixture was reacted at 30° C. for 20 minutes. Then, 10 μL of 350 mM phosphate buffer was added to the reaction system to stop the reaction. The substrate peptide was adsorbed on a P81 paper filter 96-well plate and then washed with 130 mM phosphate buffer for several times. The radiation activity of the peptide was measured with a liquid scintillation counter. The [γ-^33P] labeled ATP was purchased from Amersham Biosciences Co., Ltd.
as §2

Molecule	IC50 (Aurora B)	IC50 (Aurora A)
6-((4-(3-(dimethylamino)benzoyl)piperazin-1-yl)methyl)-N-(5-chlorothiazol-2-yl)pyridin-2-amine [Example 73]	410 nM	17 nM
O=C(c1cccc(F)c1Cl)N1CCN(Cc2cccc(Nc3nccs3)n2)CC1 [Example 9, 6-((4-(2-chloro-3-fluorobenzoyl)piperazin-1-yl)methyl)-N-thiazol-2-ylpyridin-2-amine]	760 nM	1.3 nM
O=C(c1cccc(Cl)c1F)N1C[C@@H]2C[C@H]1CN2Cc1cccc(Nc2nccs2)n1 [Example 10, 6-(((1S,4S)-5-(3-chloro-2-fluorobenzoyl)-2,5-diazabicyclo[2.2.1]hept-2-yl)methyl)-N-thiazol-2-ylpyridin-2-amine trifluoroacetate]	92 nM	0.49 nM
O=C(c1cccc(Cl)c1F)N1C[C@H]2C[C@@H]1CN2Cc1cccc(Nc2nccs2)n1 [Example 11, 6-(((1R,4R)-5-(3-chloro-2-fluorobenzoyl)-2,5-diazabicyclo[2.2.1]hept-2-yl)methyl)-N-thiazol-2-ylpyridin-2-amine]	570 nM	1.3 nM
O=C(c1cccc(Br)c1F)N1CCN(Cc2cccc(Nc3nccs3)n2)CC1 [Example 12, 6-((4-(3-bromo-2-fluorobenzoyl)piperazin-1-yl)methyl)-N-thiazol-2-ylpyridin-2-amine trifluioroacetate]	400 nM	0.52 nM
O=C(c1cccc(C(F)(F)F)c1F)N1CCN(Cc2cccc(Nc3nccs3)n2)CC1 [Example 13, 6-((4-(2-fluoro-3-(trifluoromethyl)benzoyl)piperazin-1-yl)methyl)-N-thiazol-2-ylpyridin-2-amine trifluoroacetate]	380 nM	0.89 nM
O=C(c1cccc(C(F)F)c1F)N1CCN(Cc2cccc(Nc3nccs3)n2)CC1 [Example 15, 6-((4-(3-(difluoromethyl)-2-fluorobenzoyl)piperazin-1-yl)methyl)-N-thiazol-2-ylpyridin-2-amine]	1000 nM	1.4 nM
O=C(c1cccc(Cl)c1F)N1CCN(Cc2cccc(Nc3cc[nH]n3)n2)CC1 [Example 16, 6-((4-(3-chloro-2-fluorobenzoyl)piperazin-1-yl)methyl)-N-1H-pyrazol-3-ylpyridin-2-amine]	1300 nM	1.8 nM
O=C(c1cccc(C(F)(F)F)c1Cl)N1CCN(Cc2cccc(Nc3cc[nH]n3)n2)CC1 [Example 18, 6-((4-(2-chloro-3-(trifluoromethyl)benzoyl)piperazin-1-yl)methyl)-N-1H-pyrazol-3-ylpyridin-2-amine trifluoroacetate]	830 nM	1.8 nM
O=C(c1cccc(Br)c1F)N1CCN(Cc2cccc(Nc3cc[nH]n3)n2)CC1 [Example 20, 6-((4-(3-bromo-2-fluorobenzoyl)piperazin-1-yl)methyl)-N-1H-pyrazol-3-ylpyridin-2-amine trifluoroacetate]	1800 nM	1.1 nM
O=C(Cc1ccc(Cl)c(Cl)c1)N1CCN(Cc2cccc(Nc3cc[nH]n3)n2)CC1 [Example 21, 6-((4-((3,4-dichlorophenyl)acetyl)piperazin-1-yl)methyl)-N-1H-pyrazol-3-ylpyridin-2-amine trifluoroacetate]	6800 nM	16 nM
O=C(c1cccc(Cl)c1F)N1C[C@@H]2C[C@H]1CN2Cc1cccc(Nc2cc[nH]n2)n1 [Example 23, 6-(((1 S,4S)-5-(3-chloro-2-fluorobenzoyl)-2,5-diazabicyclo[2.2.1]hept-2-yl)methyl)-N-1H-pyrazol-3-ylpyridin-2-amine]	1200 nM	3.6 nM
CC(c1cccc(Nc2cc[nH]n2)n1)N1CCN(C(=O)c2cccc(Cl)c2F)CC1 (stereo not shown) [Example 24, 6-(1-(4-(3-chloro-2-fluorobenzoyl)piperazin-1-yl)ethyl)-N-1H-pyrazol-3-ylpyridin-2-amine]	26000 nM	23 nM
Cc1cc(Nc2cccc(CN3CCN(C(=O)c4cccc(Cl)c4Cl)CC3)n2)n[nH]1 [Example 26, 6-((4-(2,3-dichlorobenzoyl)piperazin-1-yl)methyl)-N-(5-methyl-1H-pyrazol-3-yl)pyridin-2-amine trifluoroacetate]	450 nM	1.1 nM
Cc1cc(Nc2cccc(CN3C[C@@H]4C[C@H]3CN4C(=O)c3cccc(Cl)c3F)n2)n[nH]1 [Example 27, 6-(((1S,4S)-5-(3-chloro-2-fluorobenzoyl)-2,5-diazabicyclo[2.2.1]hept-2-yl)methyl)-N-(5-methyl-1H-pyrazol-3-yl)pyridin-2-amine]	1700 nM	3.3 nM
O=C(c1ccccc1)N1CCN(Cc2cccc(Nc3cc(C4CC4)[nH]n3)n2)CC1 [Example 31, 6-((4-benzoylpiperazin-1-yl)methyl)-N-(5-cyclopropyl-1H-pyrazol-3-yl)pyridin-2-amine]	760 nM	37 nM
O=C(c1cccc(Cl)c1F)N1CCN(Cc2cccc(Nc3ncns3)n2)CC1 [Example 32, 6-((4-(3-chloro-2-fluorobenzoyl)piperazin-1-yl)methyl)-N-1,2,4-thiadiazol-5-ylpyridin-2-amine]	4800 nM	3.7 nM
C[C@@H]1CN(Cc2cccc(Nc3ncns3)n2)CCN1C(=O)c1ccccc1 [Example 33, 6-(((3R)-4-benzoyl-3-methylpiperazin-1-yl)methyl)-N-1,2,4-thiadiazol-5-ylpyridin-2-amine trifluoroacetate]	3000 nM	50 nM
O=C(c1ccccc1)N1CCCN(Cc2cccc(Nc3ncns3)n2)CC1 [Example 35, 6-((4-benzoyl-1,4-diazepan-1-yl)methyl)-N-1,2,4-thiadiazol-5-ylpyridin-2-amine]	3400 nM	31 nM
O=C(c1cccc(C(F)(F)F)c1)N1CCN(Cc2cccc(Nc3ncns3)n2)CC1 [Example 37, 6-((4-(3-(trifluoromethyl)benzoyl)piperazin-1-yl)methyl)-N-1,2,4-thiadiazol-5-ylpyridin-2-amine]	8800 nM	4.9 nM
O=C(c1cccc(Br)c1)N1CCN(Cc2cccc(Nc3ncns3)n2)CC1 [Example 38, 6-((4-(3-bromobenzoyl)piperazin-1-yl)methyl)-N-1,2,4-thiadiazol-5-ylpyridin-2-amine]	9500 nM	9.1 nM
O=C(c1cccc(C(F)F)c1F)N1CCN(Cc2cccc(Nc3ncns3)n2)CC1 [Example 41, 6-((4-(2-fluoro-3-(difluoromethyl)benzoyl)piperazin-1-yl)methyl)-N-1,2,4-thiadiazol-5-ylpyridin-2-amine trifluoroacetate]	5000 nM	2.9 nM
Cc1cnc(Nc2cccc(CN3CCN(C(=O)c4cccc(Cl)c4F)CC3)n2)s1 [Example 42, 6-((4-(3-chloro-2-fluorobenzoyl)piperazin-1-yl)methyl)-N-(5-methyl-thiazol-2-yl)pyridin-2-amine trifluoroacetate]	530 nM	1 nM
